Experimental data: patent publication US10479814B2, “Adenosine receptor activation reagent and the uses of thereof” (Zhejiang Subtropical Crops Research Institute, priority 2014, dated 2019)

Experiments:
A1 receptor = details: cited from earlier work; for A1 selectivity: according to document record (Jacobson 1992); for selectivity to the A1 receptor (in words): existing A1 agonists
[1] = test system: pentylenetetrazole induced convulsion; assay: pentylenetetrazole induced convulsion in mouse; format: in vivo; details: antagonist ip 10 min before HEA 40 mg/kg, DPCPX 2 mg/kg, ZM241385 1 and 5 mg/kg
Experimental: Male ICR mouse, 18˜22 g; purchased from Animal Experiment Center of Wenzhou Medical University. Before experiment, animals were adapted to environment for at least 5 days. Kept at 25 °C, food and water were freely fed. Based on the weight, the healthy male ICR mice were randomly divided into control group (1% DMSO, ip), model group, CCPA group (0.1 mg·kg^−1, ip), HEA group (15 mg/kg, 40 mg/kg, 60 mg/kg), DPCPX group (2 mg·kg^−1, ip), ZM241385 group (1 mg·kg^−1, 5 mg·kg^−1, ip), DPCPX+HEA (2 mg·kg^−1+40 mg/kg, ip) group and ZM241385+HEA (1 mg·kg^−1+40 mg/kg, 5 mg·kg^−1+40 mg/kg ip) group.
The survival time and mortality after convulsion were respectively recorded for each group.

Row | Structure (SMILES) | A1 selectivity (A1 receptor) | selectivity to the A1 receptor (in words) (A1 receptor) | effect of antagonist on the anti-convulsion action of the HEA [1] | effect of antagonist on the anti-convulsion action of the HEA ([1]; listed as Zm241385)
1 | OC[C@H]1O[C@@H](n2cnc3c(N[C@H]4CC5CCC4C5)ncnc32)[C@H](O)[C@@H]1O (stereo partly shown) [S-ENBA] | up to 4700 fold | – | – | –
2 | OC[C@H]1O[C@@H](n2cnc3c(NC4CCCCC4)ncnc32)[C@H](O)[C@@H]1O [CHA] | – | strong selectivity to the A1 receptor | – | –
3 | OC[C@H]1O[C@@H](n2cnc3c(NC4CCCC4)nc(Cl)nc32)[C@H](O)[C@@H]1O [CCPA] | 1500 fold | strong selectivity to the A1 receptor | – | –
4 | Nc1nc(NCCc2ccc(O)cc2)nc2nc(-c3ccco3)nn12 [ZM241385] | – | – | no significant effect on the anti-convulsion effect of the HEA | no significant effect on the anti-convulsion action of the HEA
5 | OC[C@H]1O[C@@H](n2cnc3c(NC4CCCC4)ncnc32)[C@H](O)[C@@H]1O [CPA] | – | strong selectivity to the A1 receptor | – | –
